In patent publication US20160378909A1, “PROCESS FOR IDENTIFYING CULTURE CONDITIONS FOR A CELL OR ORGANISM” (GLAXOSMITHKLINE BIOLOGICALS SA, priority 2013, published 2016):
Counter-ions that a name gives are not always drawn. Like-named read-outs stand apart in the source and are kept apart here.

System: Bordetella pertussis
Assay: microbe, parasite or virus in culture
Format: cell-based
Conditions: for activity at 0.2 µg/mL / activity at 2 µg/mL / activity at 0.3 µg/mL / activity at 3 µg/mL / activity at 2000 µM / activity at 6000 µg/mL / activity at 1 µg/mL / activity at 10 µg/mL / activity at 0.1 µg/mL: Bordetella pertussis
Procedure: Cells were harvested by centrifugation, washed twice with NaCl 0.9% (w/v), and resuspended in fresh medium (de novo minimal CDM; see composition in Table 1) at a theoretical OD650 nm of 0.5, as calculated from the OD650 nm of the culture before harvest. 20 μl of this cell suspension were used to inoculate each well of a 96-well microtiter plate filled with 180 μl of de novo minimal CDM. Only the inner wells of the plate were used for cultures, in order to minimize evaporation, and two controls were included, in which the supplement solution was replaced with water.
The plate was then incubated for 7 days at 35° C. in a Biotek Synergy H1 reader with constant shaking, and growth was automatically monitored every 10 minutes as OD650 nm.
The relative growth yield and growth rate for each supplement was then averaged over the three independent repeats, and the standard deviation was calculated.

[1] = 1.89 mg/L in medium, first generation, relative to water controls
[2] = 1.89 mg/L in medium, max OD650 nm relative to water controls
[3] = 18.9 mg/L in medium, first generation, relative to water controls
[4] = 18.9 mg/L in medium, max OD650 nm relative to water controls
[5] = 10 mg/L in medium, first generation, relative to water controls
[6] = 10 mg/L in medium, max OD650 nm relative to water controls
[7] = 1 mM in medium, first generation, relative to water controls
[8] = 2 mM in medium, max OD650 nm relative to water controls
[9] = 168 h, read-out: Relative yield Average, 0.2 mg/L in medium, max OD650 nm relative to water controls
[10] = 168 h, read-out: Relative yield Average, 2 mg/L in medium, max OD650 nm relative to water controls
[11] = read-out: Relative growth rate Average, 0.2 mg/L in medium, first generation, relative to water controls
[12] = read-out: Relative growth rate Average, 2 mg/L in medium, first generation, relative to water controls
[13] = 5 mM in medium, first generation, relative to water controls
[14] = 5 mM in medium, max OD650 nm relative to water controls
[15] = 50 mM in medium, first generation, relative to water controls
[16] = 50 mM in medium, max OD650 nm relative to water controls
[17] = 168 h, read-out: Relative yield Average, 2 mM in medium, max OD650 nm relative to water controls
[18] = 168 h, read-out: Relative yield Average, 1 mg/L in medium, max OD650 nm relative to water controls
[19] = read-out: Relative growth rate Average, 1 mg/L in medium, first generation, relative to water controls

Compound: O.O=S(=O)([O-])[O-].[Mn+2] [MnSO4•H2O]
- Relative growth rate Average [1]: 91.27%
- Relative yield Average [2]: 109.53%
- Relative growth rate Average [3]: 47.58%
- Relative yield Average [4]: 91.55%

Compound: NC(=O)c1ccc[n+]([C@@H]2O[C@H](COP(=O)([O-])OP(=O)(O)OC[C@H]3O[C@@H](n4cnc5c(N)ncnc54)[C@H](O)[C@@H]3O)[C@@H](O)[C@H]2O)c1 [NAD]
- Relative growth rate Average [5]: 100.14%
- Relative yield Average [6]: 100.15%
- Relative growth rate Average (100 mg/L in medium, first generation, relative to water controls): 97.38%
- Relative yield Average (100 mg/L in medium, max OD650 nm relative to water controls): 104.61%

Compound: Cl.N [NH4Cl]
- Relative growth rate Average [7]: 98.56%
- Relative yield Average (1 mM in medium, max OD650 nm relative to water controls): 104.80%

Compound: O=P([O-])([O-])O.[Na+].[Na+] [Na2HPO4]
- Relative growth rate Average [7]: 99.98%
- Relative growth rate Average (10 mM in medium, first generation, relative to water controls): 101.26%

Compound: O.O.[Na+].[Na+].[O]=[Mo](=[O])([O-])[O-] [Na2MoO4•2H2O]
- Relative growth rate Average (0.94 mg/L in medium, first generation, relative to water controls): 86.76%
- Relative yield Average (0.94 mg/L in medium, max OD650 nm relative to water controls): 101.96%
- Relative growth rate Average (9.4 mg/L in medium, first generation, relative to water controls): 91.79%
- Relative yield Average (9.4 mg/L in medium, max OD650 nm relative to water controls): 105.65%

Compound: O=C([O-])O.[Na+] [NaHCO3]
- Relative yield Average [8]: 102.33%

Compound: [I-].[K+] [Potassium iodide]
- Relative growth rate Average (0.47 mg/L in medium, first generation, relative to water controls): 94.69%
- Relative yield Average (0.47 mg/L in medium, max OD650 nm relative to water controls): 101.89%
- Relative growth rate Average (4.7 mg/L in medium, first generation, relative to water controls): 99.91%
- Relative yield Average (4.7 mg/L in medium, max OD650 nm relative to water controls): 104.26%

Compound: Cc1ncc(CO)c(CO)c1O [Pyridoxine]
- activity at 0.2 µg/mL [9]: 95 to 105%
- activity at 2 µg/mL [10]: 95 to 105%
- activity at 0.2 µg/mL [11]: 95 to 105%
- activity at 2 µg/mL [12]: 95 to 105%

Compound: Cc1cc2nc3c(=O)[nH]c(=O)nc-3n(C[C@H](O)[C@H](O)[C@H](O)CO)c2cc1C [Riboflavin]
- activity at 0.3 µg/mL (168 h, read-out: Relative yield Average, 0.3 mg/L in medium, max OD650 nm relative to water controls): 95 to 105%
- activity at 3 µg/mL (168 h, read-out: Relative yield Average, 3 mg/L in medium, max OD650 nm relative to water controls): 95 to 105%
- activity at 0.3 µg/mL (read-out: Relative growth rate Average, 0.3 mg/L in medium, first generation, relative to water controls): > 105%
- activity at 3 µg/mL (read-out: Relative growth rate Average, 3 mg/L in medium, first generation, relative to water controls): 95 to 105%

Compound: C[C@H](O)C(=O)[O-].[Na+] [Sodium L-Lactate]
- Relative growth rate Average [13]: 128.73%
- Relative yield Average [14]: 100.70%
- Relative growth rate Average [15]: 103.33%
- Relative yield Average [16]: 192.99%

Compound: CC(=O)[O-].[Na+] [Sodium acetate]
- Relative growth rate Average [13]: 101.45%
- Relative yield Average [14]: 99.15%
- Relative growth rate Average [15]: 71.40%
- Relative yield Average [16]: 152.20%

Compound: O=C[O-].[Na+] [Sodium formate]
- Relative growth rate Average (2 mM in medium, first generation, relative to water controls): 97.36%
- Relative yield Average [8]: 143.35%
- Relative growth rate Average (20 mM in medium, first generation, relative to water controls): 89.12%
- Relative yield Average (20 mM in medium, max OD650 nm relative to water controls): 168.28%

Compound: CC(=O)C(=O)O [Sodium pyruvate]
- activity at 2000 µM [17]: < 95%
- activity at 2000 µM (read-out: Relative growth rate Average, 2 mM in medium, first generation, relative to water controls): < 95%

Compound: O=C(O)CCC(=O)O [Succinic acid]
- activity at 2000 µM [17]: < 95%

Compound: OC[C@H]1O[C@@](CO)(O[C@H]2O[C@H](CO)[C@@H](O)[C@H](O)[C@H]2O)[C@@H](O)[C@@H]1O [Sucrose]
- activity at 6000 µg/mL (168 h, read-out: Relative yield Average, 6 g/L in medium, max OD650 nm relative to water controls): > 105%
- activity at 6000 µg/mL (read-out: Relative growth rate Average, 6 g/L in medium, first generation, relative to water controls): 95 to 105%

Compound: OB(O)O [Supplement H3BO3, H3BO3]
- Relative growth rate Average (2.36 mg/L in medium, first generation, relative to water controls): 93.25%
- Relative yield Average (2.36 mg/L in medium, max OD650 nm relative to water controls): 96.86%

Compound: Cc1ncc(C[n+]2csc(CCO)c2C)c(N)n1 [Thiamine HCl]
- activity at 1 µg/mL [18]: 95 to 105%
- activity at 10 µg/mL (168 h, read-out: Relative yield Average, 10 mg/L in medium, max OD650 nm relative to water controls): > 105%
- activity at 1 µg/mL [19]: 95 to 105%
- activity at 10 µg/mL (read-out: Relative growth rate Average, 10 mg/L in medium, first generation, relative to water controls): > 105%

Compound: O=c1cc[nH]c(=O)[nH]1 [Uracil]
- activity at 0.1 µg/mL (168 h, read-out: Relative yield Average, 0.1 mg/L in medium, max OD650 nm relative to water controls): 95 to 105%
- activity at 1 µg/mL [18]: 101%
- activity at 0.1 µg/mL (read-out: Relative growth rate Average, 0.1 mg/L in medium, first generation, relative to water controls): 95 to 105%
- activity at 1 µg/mL [19]: 94.8%

Compound: [Cl-].[Cl-].[Zn+2] [ZnCl2]
- Relative growth rate Average [5]: 103.27%

Compound: O.O.O.O.O.O.O.O=S(=O)([O-])[O-].[Zn+2] [ZnSO4•7H2O]
- Relative growth rate Average [1]: 91.58%
- Relative yield Average [2]: 191.76%
- Relative growth rate Average [3]: 99.13%
- Relative yield Average [4]: 163.55%

Compound: Nc1ccc(C(=O)O)cc1 [para-aminobenzoic acid]
- activity at 0.2 µg/mL [9]: 95 to 105%
- activity at 2 µg/mL [10]: 95 to 105%
- activity at 0.2 µg/mL [11]: > 105%
- activity at 2 µg/mL [12]: 95 to 105%

Compound: Calcium pantothenate
- Relative growth rate Average (1 mg/L in medium, first generation, relative to water controls): 102.18%
- Relative yield Average (1 mg/L in medium, max OD650 nm relative to water controls): 106.59%
- Relative growth rate Average [5]: 102.47%
- Relative yield Average [6]: 98.99%
